“And” between values parts separate entries of the source, which are not always exact repeats. Equal entries are not always repeated.
Tested on: OVCAR-8 complex spheroid, growth inhibition
Assay: Anticancer human tumor OVCAR-8 cell line growth inhibition [Asc];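 also: spheroids exposed to agents for 7 days before readout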;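 as to viability, T/C: percent viability relative to DMSO vehicle wells taken as 100%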
Settings: for viability, T/C: stronger effect = lower value
Method: Multicellular complex tumor spheroid response to apoptosis pathway targeting inhibitors Alrizomadlin, Pelcitoclax, and Dasminapant in combination with a variety of drugs and investigational agents in selected tumor cell lines
The MDM2 inhibitor alrizomadlin, the Bcl-2/Bcl-xL inhibitor pelcitoclax, and the IAPs inhibitor dasminapant were evaluated both individually and in combination with standard of care and investigational anticancer small molecules within a complex spheroid model of solid tumors. . Complex spheroids include a stromal component modeled by human endothelial cells (HUVEC) and fibroblasts modeled by human mesenchymal stem cells (MSCs). The concentration ranges selected for each drug and investigational agent were based upon clinically achievable concentrations if the clinical Cmax of the agent was known.
Compounds. The drugs and investigational agents: alrizomadlin (APG-115; NSC831270), pelcitoclax (APG-1252; NSC835773), dasminapant (APG-1387;NSC834197), TAK-243 (NSC785004), copanlisib (NSC809693), olaparib (NSC753686), talazoparib (NSC767125), cobimetinib (NSC 768068), eltanexor (KPT-8602, NSC 794443), abemaciclib (NSC 768073), sotorasib (NSC818433), adagrasib (NSC 831453), MRTX-1133 (NSC 836407), Iadademestat (ORY1001, NSC 806812), and RMC-4630 (NSC839698), were obtained from the NCI Developmental Therapeutics Program Chemical Repository. The FDA-approved anticancer drug set is available from the Developmental Therapeutics Program at https://dtp.cancer.gov/organization/dscb/obtaining/available plates.htm. […] The stock solutions were prepared in dimethyl sulfoxide (DMSO, Sigma-Aldrich, St. Louis, MO, cat. D2650) at 800-fold the tested concentration and stored at -70 degrees C prior to their use. All drugs and investigational agents were tested over a range starting from a high concentration at or near the clinical Cmax and decreasing in half-log increments. If the clinical Cmax for an agent had not been determined, the highest concentration tested was 10 microM.
The patient-derived cancer (PDC) cell lines include five colon adenocarcinomas: 186277-243-T-J2-PDC, 616215-338-R-J1-PDC, 439559-082-T-J2-PDC, 463943-066-T-J2-PDC, and 519858-162-T-J1-PDC; three pancreatic carcinomas: 323965-272-R-J2-PDC, 521955-158-R6-J3-PDC, and 521955-158-R2-J5-PDC; two uterine sarcomas: 327498-152-R-J2-PDC and 993429-296-R-J1-PDC; two rhabdomyosarcomas: 755483-174-R-J1-PDC and 772245-204-R-J1-PDC; two soft tissue sarcomas: 126254-015-R-J1-PDC and 494315-158-R-J1-PDC; two malignant fibrous histiocytomas: 317291-083-R-J1-PDC and 596521-263-R-J1-PDC; two breast carcinomas: 171881-019-R-J1-PDC and 885512-296-R-J2-PDC; and one ovarian carcinoma: 6556581-035-R-J-PDC were obtained from the NCI PDMR, (https://pdmr.cancer.gov). The established cell lines HSSY-2 synovial sarcoma (RRID:CVCL 8719), SYO-1 synovial sarcoma (RRID:CVCL_7146), MPNST malignant peripheral neural sheath tumor were obtained from the Sloan Kettering Institute. The following established cell lines were purchased from the American Type Culture Collection (ATCC, Manassas, VA), Sor the received from the NCI repository:, PANC-1 pancreatic carcinoma (CRL-1469, RRID:CVCL_0480), OVCAR-5 ovarian carcinoma (RRID:CVCL_1628), OVCAR-8 ovarian carcinoma (RRID:CVCL_1629), , MCF-7 breast carcinoma (CRL-12584, RRID:CVCL_0031), MDA-MB-231 breast carcinoma (CRL-12532, RRID:CVCL_0062), NCI-H1876 small cell lung carcinoma (CRL-5902, RRID:CVCL_1503), NCI-H510A small cell lung carcinoma (HTB-184, RRID:CVCL_1565), NCI-H1417 (CRL-5869, RRID:CVCL_1469), and NCI-H196 small cell lung carcinoma (CRL-5823, RRID:CVCL_1509). Dr. Peter Houghton (Greehey Children's Cancer Research Institute, University of Texas Health Science Center, San Antonio, TX) provided Rh-18 rhabdomyosarcoma (RRID:CVCL_1659). Pooled donor human umbilical vein endothelial cells (HUVEC, Lonza, cat. CC-2519) and human mesenchymal stem cells (hMSC, Lonza, cat. PT-2501) were purchased from Lonza (Walkersville, MD).
Cell Culture. […]

Cn1ncnc1[C@H]1c2n[nH]c(=O)c3cc(F)cc(c23)N[C@@H]1c1ccc(F)cc1
viability, T/C (compound 0.000316 µM): 92.4% and 93.5% and 99.5% | viability, T/C (compound 0.001 µM): 94.9% and 97.8% and 88.9% | viability, T/C (compound 0.00316 µM): 95.5% and 93.6% and 106% | viability, T/C (compound 0.01 µM): 114% and 102% and 109% | viability, T/C (compound 0.0316 µM): 115% and 117% and 105% | viability, T/C (compound 0.1 µM): 132% and 102% and 125% | IC50 (curve of compound): > 0.1 µM

Cn1ncnc1[C@H]1c2n[nH]c(=O)c3cc(F)cc(c23)N[C@@H]1c1ccc(F)cc1 + CCN1C(C(=O)NC23CCC(C(=O)O)(CC2)CC3)C(c2cccc(Cl)c2F)C2(C(=O)Nc3cc(Cl)ccc32)C12CCCCC2
IC50 (curve of first compound, second compound 0.00949 µM): > 0.1 µM | IC50 (curve of first compound, second compound 0.03 µM): > 0.1 µM | IC50 (curve of first compound, second compound 0.0949 µM): > 0.1 µM | IC50 (curve of first compound, second compound 0.3 µM): > 0.1 µM | IC50 (curve of first compound, second compound 0.949 µM): > 0.1 µM | IC50 (curve of first compound, second compound 3 µM): > 0.1 µM | viability, T/C (second compound 0.00949 µM, first compound 0.000316 µM): 90.7% | viability, T/C (second compound 0.00949 µM, first compound 0.001 µM): 82.6% | viability, T/C (second compound 0.00949 µM, first compound 0.00316 µM): 105% | viability, T/C (second compound 0.00949 µM, first compound 0.01 µM): 111% | viability, T/C (second compound 0.00949 µM, first compound 0.0316 µM): 105% | viability, T/C (second compound 0.00949 µM, first compound 0.1 µM): 128% | viability, T/C (second compound 0.03 µM, first compound 0.000316 µM): 96% | viability, T/C (second compound 0.03 µM, first compound 0.001 µM): 94.3% | viability, T/C (second compound 0.03 µM, first compound 0.00316 µM): 104% | viability, T/C (second compound 0.03 µM, first compound 0.01 µM): 109% | viability, T/C (second compound 0.03 µM, first compound 0.0316 µM): 107% | viability, T/C (second compound 0.03 µM, first compound 0.1 µM): 126% | viability, T/C (second compound 0.0949 µM, first compound 0.000316 µM): 89.8% | viability, T/C (second compound 0.0949 µM, first compound 0.001 µM): 93.7% | viability, T/C (second compound 0.0949 µM, first compound 0.00316 µM): 110% | viability, T/C (second compound 0.0949 µM, first compound 0.01 µM): 95.5% | viability, T/C (second compound 0.0949 µM, first compound 0.0316 µM): 127% | viability, T/C (second compound 0.0949 µM, first compound 0.1 µM): 101% | viability, T/C (second compound 0.3 µM, first compound 0.000316 µM): 87.8% | viability, T/C (second compound 0.3 µM, first compound 0.001 µM): 110% | viability, T/C (second compound 0.3 µM, first compound 0.00316 µM): 97.7% | viability, T/C (second compound 0.3 µM, first compound 0.01 µM): 97% | viability, T/C (second compound 0.3 µM, first compound 0.0316 µM): 106% | viability, T/C (second compound 0.3 µM, first compound 0.1 µM): 123% | viability, T/C (second compound 0.949 µM, first compound 0.000316 µM): 111% | viability, T/C (second compound 0.949 µM, first compound 0.001 µM): 92% | viability, T/C (second compound 0.949 µM, first compound 0.00316 µM): 95.3% | viability, T/C (second compound 0.949 µM, first compound 0.01 µM): 97.1% | viability, T/C (second compound 0.949 µM, first compound 0.0316 µM): 109% | viability, T/C (second compound 0.949 µM, first compound 0.1 µM): 126% | viability, T/C (second compound 3 µM, first compound 0.000316 µM): 98.6% | viability, T/C (second compound 3 µM, first compound 0.001 µM): 94.3% | viability, T/C (second compound 3 µM, first compound 0.00316 µM): 104% | viability, T/C (second compound 3 µM, first compound 0.01 µM): 117% | viability, T/C (second compound 3 µM, first compound 0.0316 µM): 115% | viability, T/C (second compound 3 µM, first compound 0.1 µM): 139%

O=C(c1cc(Cc2n[nH]c(=O)c3ccccc23)ccc1F)N1CCN(C(=O)C2CC2)CC1
viability, T/C (compound 0.0316 µM): 105% and 97.4% and 98.4% | viability, T/C (compound 0.1 µM): 103% (2×) and 97.7% | viability, T/C (compound 0.316 µM): 99% and 82.4% and 107% | viability, T/C (compound 1 µM): 117% and 95.4% and 121% | viability, T/C (compound 3.16 µM): 134% and 104% and 110% | viability, T/C (compound 10 µM): 116% and 122% and 95.5% | IC50 (curve of compound): > 10 µM

Reference: PubChem BioAssay AID1963437 (Molecular Pharmacology Branch, DTP, NCI, 2024)
